Tests used:
[1] = Relative thermodynamic stability of the forms from crystal density, DSC melt onset and heat of fusion; format: physicochemical; conditions: suggested by higher crystal density and melt onset (with higher heat of fusion)
Protocol: A tau lag adjustment is performed with indium, tin, and zinc. […] The adjustment is then verified with octane, phenyl salicylate, indium, tin, and zinc. […] A weighed aluminum pan configured as the sample pan was placed on the […] side of the cell.

[2] = Dynamic vapor sorption/desorption (DVS); format: physicochemical; conditions: for hygroscopicity: DVS plot
[3] = test system: lipid biosynthesis; cholesterol secretion and degradation; conditions: shown previously; cited from earlier work

SMILES | thermodynamic stability relative to another form [1] | weight change during the DVS cycle ([2]; 5% to 95% RH, sorption and desorption, FIG. 6) [%] | hygroscopicity ([2]; FIG. 6) | hygroscopicity ([2]; FIG. 6, listed as Crystalline thiocholesterol Form A) | solid form of material recovered from the DVS experiment (x-ray powder diffraction) ([2]; after DVS cycle 5% to 95% RH) | cholesterol secretion and degradation [3] | lipid biosynthesis [3]
CC(C)CCC[C@@H](C)[C@H]1CC[C@H]2[C@@H]3CC=C4C[C@@H](S)CC[C@]4(C)[C@H]3CC[C@]12C [crystalline thiocholesterol Form A] | more thermodynamically stable than Crystalline Thiocholesterol Form B | 0.25 | low hygroscopicity | non-hygroscopic | identified as crystalline thiocholesterol Form A | – | –
CC(C)CCC[C@@H](C)[C@H]1CC[C@H]2[C@@H]3CC=C4C[C@@H](S)CC[C@]4(C)[C@H]3CC[C@]12C [Thiocholesterol, (3 S,8S,9S,10R,13R,14S,17R)-17-[(1R)-1,5-dimethylhexyl]-10,13-dimethyl-2,3,4,7,8,9,11,12,14,15,16,17-dodecahydro-1H-cyclopenta[a] phenanthrene-3-thiol] | – | – | – | – | – | increases | decreases

Reference: patent publication US20230365618A1, “CRYSTALLINE THIOCHOLESTEROL” (Durect Corporation, priority 2020, published 2023)
